Publication PMC4508061, “Selectivity Profiling and Biological Activity of Novel β-Carbolines as Potent and Selective DYRK1 Kinase Inhibitors” (PLoS ONE, 2015)

Experiments:
Cell viability XTT assay = format: cell-based; details: human, HeLa cells, read-out: Viability of treated cells relative to untreated control
HeLa cells = test: Cell viability XTT assay; format: cell-based; details: up to 10 μM, 3 days
ABL1 = ABL1 (Homo sapiens, UniProt P00519); test: ProQinase radiometric kinase panel; details: mean of 2 exp.
ACV-R1 = ACV-R1 (Homo sapiens, UniProt Q04771); test: ProQinase radiometric kinase panel; details: mean of 2 exp.
CDK1/CycA2 = CDK1/CycA2 (Homo sapiens, UniProt P06493); test: ProQinase radiometric kinase panel; details: mean of 2 exp.
CDK7/CycH/MAT1 = CDK7/CycH/MAT1 (Homo sapiens, UniProt P50613); test: ProQinase radiometric kinase panel; details: mean of 2 exp.
DNA-PK = DNA-PK (Homo sapiens, UniProt P78527); test: ProQinase radiometric kinase panel; details: mean of 2 exp.
EGF-R = EGF-R (Homo sapiens, UniProt P00533); test: ProQinase radiometric kinase panel; details: mean of 2 exp.
EIF2AK2 = EIF2AK2 (Homo sapiens, UniProt P19525); test: ProQinase radiometric kinase panel; details: mean of 2 exp.
EPHA1 = EPHA1 (Homo sapiens, UniProt P21709); test: ProQinase radiometric kinase panel; details: mean of 2 exp.
EPHA2 = EPHA2 (Homo sapiens, UniProt P29317); test: ProQinase radiometric kinase panel; details: mean of 2 exp.
ERBB2 = ERBB2 (Homo sapiens, UniProt P04626); test: ProQinase radiometric kinase panel; details: mean of 2 exp.
ERK2 = ERK2 (Homo sapiens, UniProt P28482); test: ProQinase radiometric kinase panel; details: mean of 2 exp.
FAK = FAK (Homo sapiens, UniProt Q05397); test: ProQinase radiometric kinase panel; details: mean of 2 exp.
FGF-R4 = FGF-R4 (Homo sapiens, UniProt P22455); test: ProQinase radiometric kinase panel; details: mean of 2 exp.
GRK3 = GRK3 (Homo sapiens, UniProt P35626); test: ProQinase radiometric kinase panel; details: mean of 2 exp.
LYN = LYN (Homo sapiens, UniProt P07948); test: ProQinase radiometric kinase panel; details: mean of 2 exp.
MAPKAPK2 = MAPKAPK2 (Homo sapiens, UniProt P49137); test: ProQinase radiometric kinase panel; details: mean of 2 exp.
MEK1 = MEK1 (Homo sapiens, UniProt Q02750); test: ProQinase radiometric kinase panel; details: mean of 2 exp.
MKNK1 = MKNK1 (Homo sapiens, UniProt Q9BUB5); test: ProQinase radiometric kinase panel; details: mean of 2 exp.
MST2 = MST2 (Homo sapiens, UniProt Q13188); test: ProQinase radiometric kinase panel; details: mean of 2 exp.
MST3 = MST3 (Homo sapiens, UniProt Q9Y6E0); test: ProQinase radiometric kinase panel; details: mean of 2 exp.
NEK6 = NEK6 (Homo sapiens, UniProt Q9HC98); test: ProQinase radiometric kinase panel; details: mean of 2 exp.
PASK = PASK (Homo sapiens, UniProt Q96RG2); test: ProQinase radiometric kinase panel; details: mean of 2 exp.
PHKG1 = PHKG1 (Homo sapiens, UniProt Q16816); test: ProQinase radiometric kinase panel; details: mean of 2 exp.
PIM2 = PIM2 (Homo sapiens, UniProt Q9P1W9); test: ProQinase radiometric kinase panel; details: mean of 2 exp.
PKA = PKA (Homo sapiens, UniProt P17612); test: ProQinase radiometric kinase panel; details: mean of 2 exp.
PKC-epsilon = PKC-epsilon (Homo sapiens, UniProt Q02156); test: ProQinase radiometric kinase panel; details: mean of 2 exp.
PRK1 = PRK1 (Homo sapiens, UniProt Q16512); test: ProQinase radiometric kinase panel; details: mean of 2 exp.
PRK2 = PRK2 (Homo sapiens, UniProt Q16513); test: ProQinase radiometric kinase panel; details: mean of 2 exp.
PRKD2 = PRKD2 (Homo sapiens, UniProt Q9BZL6); test: ProQinase radiometric kinase panel; details: mean of 2 exp.
RAF1 (Y340D/Y341D) = RAF1 (Y340D/Y341D) (Homo sapiens, UniProt P04049, Y340D/Y341D); test: ProQinase radiometric kinase panel; details: mean of 2 exp.
RIPK2 = RIPK2 (Homo sapiens, UniProt O43353); test: ProQinase radiometric kinase panel; details: mean of 2 exp.
RON = RON (Homo sapiens, UniProt Q04912); test: ProQinase radiometric kinase panel; details: mean of 2 exp.
TEC = TEC (Homo sapiens, UniProt P42680); test: ProQinase radiometric kinase panel; details: mean of 2 exp.
TGFB-R2 = TGFB-R2 (Homo sapiens, UniProt P37173); test: ProQinase radiometric kinase panel; details: mean of 2 exp.
TTK = TTK (Homo sapiens, UniProt P33981); test: ProQinase radiometric kinase panel; details: mean of 2 exp.
WNK3 = WNK3 (Homo sapiens, UniProt Q9BYP7); test: ProQinase radiometric kinase panel; details: mean of 2 exp.
ZAP70 = ZAP70 (Homo sapiens, UniProt P43403); test: ProQinase radiometric kinase panel; details: mean of 2 exp.

FGF-R4, sequence (P22455 22-802): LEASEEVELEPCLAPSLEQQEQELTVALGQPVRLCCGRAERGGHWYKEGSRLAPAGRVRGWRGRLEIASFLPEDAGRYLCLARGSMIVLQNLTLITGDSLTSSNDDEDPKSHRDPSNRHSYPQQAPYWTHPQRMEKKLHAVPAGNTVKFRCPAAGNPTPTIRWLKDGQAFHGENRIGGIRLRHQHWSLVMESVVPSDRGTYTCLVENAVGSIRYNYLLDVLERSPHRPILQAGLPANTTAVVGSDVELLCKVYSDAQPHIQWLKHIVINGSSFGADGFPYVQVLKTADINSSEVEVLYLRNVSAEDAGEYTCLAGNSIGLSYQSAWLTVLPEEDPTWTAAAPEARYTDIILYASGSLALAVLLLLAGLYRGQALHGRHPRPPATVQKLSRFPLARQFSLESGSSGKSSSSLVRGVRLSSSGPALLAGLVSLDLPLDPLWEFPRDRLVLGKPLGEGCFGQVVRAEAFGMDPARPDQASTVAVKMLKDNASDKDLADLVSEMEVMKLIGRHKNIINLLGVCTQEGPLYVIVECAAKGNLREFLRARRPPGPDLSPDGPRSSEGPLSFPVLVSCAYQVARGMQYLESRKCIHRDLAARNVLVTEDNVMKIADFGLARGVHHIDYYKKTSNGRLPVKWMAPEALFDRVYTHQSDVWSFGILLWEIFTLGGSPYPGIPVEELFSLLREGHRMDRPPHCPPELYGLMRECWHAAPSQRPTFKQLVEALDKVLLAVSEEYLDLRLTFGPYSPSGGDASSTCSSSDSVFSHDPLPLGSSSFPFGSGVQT
CDK7/CycH/MAT1, sequence (P50613 whole entry): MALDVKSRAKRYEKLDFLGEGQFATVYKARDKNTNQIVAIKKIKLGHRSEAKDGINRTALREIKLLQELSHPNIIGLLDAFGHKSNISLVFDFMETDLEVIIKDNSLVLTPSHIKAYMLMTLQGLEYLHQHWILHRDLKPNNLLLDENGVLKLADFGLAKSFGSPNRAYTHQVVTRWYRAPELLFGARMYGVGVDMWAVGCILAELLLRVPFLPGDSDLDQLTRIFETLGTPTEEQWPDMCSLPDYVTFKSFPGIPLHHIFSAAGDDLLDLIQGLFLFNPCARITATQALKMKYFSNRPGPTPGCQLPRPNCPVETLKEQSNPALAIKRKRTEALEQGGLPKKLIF
CDK7/CycH/MAT1, sequence (P51946 whole entry partner): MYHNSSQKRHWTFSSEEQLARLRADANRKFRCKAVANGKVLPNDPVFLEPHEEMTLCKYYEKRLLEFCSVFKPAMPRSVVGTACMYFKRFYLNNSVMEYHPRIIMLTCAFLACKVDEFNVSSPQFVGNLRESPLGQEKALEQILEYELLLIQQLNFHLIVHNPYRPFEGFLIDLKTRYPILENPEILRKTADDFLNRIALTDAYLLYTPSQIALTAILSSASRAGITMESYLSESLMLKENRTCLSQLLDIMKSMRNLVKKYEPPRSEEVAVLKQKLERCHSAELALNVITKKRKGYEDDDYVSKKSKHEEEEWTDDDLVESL
CDK7/CycH/MAT1, sequence (P51948 whole entry partner): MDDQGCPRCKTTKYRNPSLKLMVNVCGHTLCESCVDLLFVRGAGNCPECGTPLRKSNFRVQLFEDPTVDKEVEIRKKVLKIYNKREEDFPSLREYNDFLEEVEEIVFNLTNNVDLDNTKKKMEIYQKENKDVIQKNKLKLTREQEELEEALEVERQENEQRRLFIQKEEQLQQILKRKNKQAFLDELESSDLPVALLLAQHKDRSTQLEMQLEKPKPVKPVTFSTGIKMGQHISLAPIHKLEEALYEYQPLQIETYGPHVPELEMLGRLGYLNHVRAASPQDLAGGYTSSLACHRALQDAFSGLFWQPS
GRK3, sequence (P35626 whole entry): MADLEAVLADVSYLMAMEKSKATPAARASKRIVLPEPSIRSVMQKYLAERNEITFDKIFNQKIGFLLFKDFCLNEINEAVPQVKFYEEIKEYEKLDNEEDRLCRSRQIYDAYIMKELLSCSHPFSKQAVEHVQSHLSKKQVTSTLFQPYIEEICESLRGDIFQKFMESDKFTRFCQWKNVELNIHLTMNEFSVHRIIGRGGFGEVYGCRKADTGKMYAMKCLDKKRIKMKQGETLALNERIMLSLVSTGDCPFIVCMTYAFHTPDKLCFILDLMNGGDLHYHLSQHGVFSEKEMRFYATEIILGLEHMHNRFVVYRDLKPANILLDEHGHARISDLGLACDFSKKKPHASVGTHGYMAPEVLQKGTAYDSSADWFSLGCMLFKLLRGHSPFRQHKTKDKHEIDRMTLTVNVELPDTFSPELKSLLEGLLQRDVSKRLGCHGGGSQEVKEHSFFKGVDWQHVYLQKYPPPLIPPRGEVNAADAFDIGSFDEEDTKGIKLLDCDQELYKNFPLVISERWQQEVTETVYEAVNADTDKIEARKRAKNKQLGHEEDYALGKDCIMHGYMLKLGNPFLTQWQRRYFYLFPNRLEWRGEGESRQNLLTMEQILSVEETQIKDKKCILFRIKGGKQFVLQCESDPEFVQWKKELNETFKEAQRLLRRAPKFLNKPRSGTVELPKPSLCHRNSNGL
MEK1, sequence (Q02750 whole entry): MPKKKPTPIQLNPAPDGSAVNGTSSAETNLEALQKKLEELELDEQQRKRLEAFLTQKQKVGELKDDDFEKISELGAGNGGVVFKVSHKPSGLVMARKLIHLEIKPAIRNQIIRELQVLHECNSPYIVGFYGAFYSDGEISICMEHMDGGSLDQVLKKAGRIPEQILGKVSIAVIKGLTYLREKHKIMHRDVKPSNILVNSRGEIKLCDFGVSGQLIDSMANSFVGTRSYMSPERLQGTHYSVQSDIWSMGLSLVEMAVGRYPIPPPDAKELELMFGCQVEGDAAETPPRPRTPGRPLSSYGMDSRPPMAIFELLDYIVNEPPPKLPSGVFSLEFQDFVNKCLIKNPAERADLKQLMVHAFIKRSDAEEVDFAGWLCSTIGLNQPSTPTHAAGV
EIF2AK2, sequence (P19525 whole entry): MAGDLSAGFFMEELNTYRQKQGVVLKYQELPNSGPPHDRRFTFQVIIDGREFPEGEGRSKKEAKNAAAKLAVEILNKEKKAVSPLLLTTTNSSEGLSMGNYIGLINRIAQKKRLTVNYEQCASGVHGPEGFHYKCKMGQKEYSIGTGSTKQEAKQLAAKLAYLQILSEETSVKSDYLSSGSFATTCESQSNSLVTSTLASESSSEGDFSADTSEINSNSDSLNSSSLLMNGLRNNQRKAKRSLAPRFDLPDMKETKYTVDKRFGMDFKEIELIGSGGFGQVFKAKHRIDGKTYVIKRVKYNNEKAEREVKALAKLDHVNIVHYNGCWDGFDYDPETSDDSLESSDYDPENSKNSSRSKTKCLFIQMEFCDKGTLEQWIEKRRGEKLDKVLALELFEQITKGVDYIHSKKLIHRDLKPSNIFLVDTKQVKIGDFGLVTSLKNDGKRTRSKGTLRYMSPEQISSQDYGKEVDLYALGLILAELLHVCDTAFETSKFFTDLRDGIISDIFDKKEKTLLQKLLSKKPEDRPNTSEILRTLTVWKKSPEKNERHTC
TGFB-R2, sequence (P37173 23-567): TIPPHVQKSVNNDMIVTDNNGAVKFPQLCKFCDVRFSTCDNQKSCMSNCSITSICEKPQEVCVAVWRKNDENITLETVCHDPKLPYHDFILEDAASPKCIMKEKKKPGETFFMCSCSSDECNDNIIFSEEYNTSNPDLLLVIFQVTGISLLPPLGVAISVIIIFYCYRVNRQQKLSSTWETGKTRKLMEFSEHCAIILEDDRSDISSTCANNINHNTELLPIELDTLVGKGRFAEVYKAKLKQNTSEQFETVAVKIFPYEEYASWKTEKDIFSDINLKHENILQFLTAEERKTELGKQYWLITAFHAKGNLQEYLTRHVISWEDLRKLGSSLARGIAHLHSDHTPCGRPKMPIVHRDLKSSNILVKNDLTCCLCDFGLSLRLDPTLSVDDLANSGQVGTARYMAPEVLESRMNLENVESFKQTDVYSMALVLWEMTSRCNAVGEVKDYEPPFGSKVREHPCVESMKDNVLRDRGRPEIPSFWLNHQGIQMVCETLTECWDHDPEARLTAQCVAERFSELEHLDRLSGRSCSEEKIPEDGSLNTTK
NEK6, sequence (Q9HC98 whole entry): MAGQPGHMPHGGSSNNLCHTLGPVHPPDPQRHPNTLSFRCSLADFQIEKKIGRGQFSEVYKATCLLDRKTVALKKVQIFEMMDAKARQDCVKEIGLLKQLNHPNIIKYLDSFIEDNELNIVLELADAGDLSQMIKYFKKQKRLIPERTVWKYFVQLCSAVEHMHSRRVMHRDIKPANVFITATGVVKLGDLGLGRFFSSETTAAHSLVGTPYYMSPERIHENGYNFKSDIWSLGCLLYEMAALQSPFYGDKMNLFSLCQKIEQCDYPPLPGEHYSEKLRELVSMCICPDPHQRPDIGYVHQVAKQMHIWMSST
PHKG1, sequence (Q16816 whole entry): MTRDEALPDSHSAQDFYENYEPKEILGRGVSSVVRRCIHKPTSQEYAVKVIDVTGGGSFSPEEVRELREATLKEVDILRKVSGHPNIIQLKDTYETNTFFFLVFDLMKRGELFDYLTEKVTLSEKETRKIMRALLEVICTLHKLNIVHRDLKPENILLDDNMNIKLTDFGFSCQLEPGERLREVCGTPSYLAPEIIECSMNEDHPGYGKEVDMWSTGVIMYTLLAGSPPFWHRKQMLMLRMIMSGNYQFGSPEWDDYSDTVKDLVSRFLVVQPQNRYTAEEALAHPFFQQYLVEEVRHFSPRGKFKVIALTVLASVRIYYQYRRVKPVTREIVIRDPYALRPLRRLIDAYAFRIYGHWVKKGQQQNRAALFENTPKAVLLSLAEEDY
PIM2, sequence (Q9P1W9 whole entry): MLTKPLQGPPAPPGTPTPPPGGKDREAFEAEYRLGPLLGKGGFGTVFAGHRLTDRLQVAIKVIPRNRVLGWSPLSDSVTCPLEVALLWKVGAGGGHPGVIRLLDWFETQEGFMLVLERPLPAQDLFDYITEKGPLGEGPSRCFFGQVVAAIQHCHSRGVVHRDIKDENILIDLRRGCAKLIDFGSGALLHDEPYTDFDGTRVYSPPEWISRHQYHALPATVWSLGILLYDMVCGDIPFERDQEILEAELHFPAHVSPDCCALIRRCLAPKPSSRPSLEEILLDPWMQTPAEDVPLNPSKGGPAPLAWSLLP

COc1ccc2c3ccnc(Cl)c3n(CC#N)c2c1 [AnnH75]
viability at 3 days, 1 µM (Cell viability XTT assay; 1 μM): 100% | viability at 3 days, 3 µM (Cell viability XTT assay; 3 μM): 93% | cytotoxicity (HeLa cells): minimal cytotoxicity | residual activity at 1 µM, Mean (ABL1): 95 % of control | residual activity at 1 µM, Mean (ACV-R1): 93 % of control | residual activity at 1 µM, Mean (CDK1/CycA2): 79 % of control | residual activity at 1 µM, Mean (CDK7/CycH/MAT1): 100 % of control | residual activity at 1 µM, Mean (DNA-PK): 63 % of control | residual activity at 1 µM, Mean (EGF-R): 104 % of control | residual activity at 1 µM, Mean (EIF2AK2): 95 % of control | residual activity at 1 µM, Mean (EPHA1): 92 % of control | residual activity at 1 µM, Mean (EPHA2): 93 % of control | residual activity at 1 µM, Mean (ERBB2): 102 % of control | residual activity at 1 µM, Mean (ERK2): 87 % of control | residual activity at 1 µM, Mean (FAK): 103 % of control | residual activity at 1 µM, Mean (FGF-R4): 98 % of control | residual activity at 1 µM, Mean (GRK3): 92 % of control | residual activity at 1 µM, Mean (LYN): 77 % of control | residual activity at 1 µM, Mean (MAPKAPK2): 85 % of control | residual activity at 1 µM, Mean (MEK1): 72 % of control | residual activity at 1 µM, Mean (MKNK1): 103 % of control | residual activity at 1 µM, Mean (MST2): 101 % of control | residual activity at 1 µM, Mean (MST3): 104 % of control | residual activity at 1 µM, Mean (NEK6): 104 % of control | residual activity at 1 µM, Mean (PASK): 74 % of control | residual activity at 1 µM, Mean (PHKG1): 91 % of control | residual activity at 1 µM, Mean (PIM2): 107 % of control | residual activity at 1 µM, Mean (PKA): 105 % of control | residual activity at 1 µM, Mean (PKC-epsilon): 39 % of control | residual activity at 1 µM, Mean (PRK1): 94 % of control | residual activity at 1 µM, Mean (PRK2): 88 % of control | residual activity at 1 µM, Mean (PRKD2): 90 % of control | residual activity at 1 µM, Mean (RAF1 (Y340D/Y341D)): 99 % of control | residual activity at 1 µM, Mean (RIPK2): 94 % of control | residual activity at 1 µM, Mean (RON): 96 % of control | residual activity at 1 µM, Mean (TEC): 93 % of control | residual activity at 1 µM, Mean (TGFB-R2): 83 % of control | residual activity at 1 µM, Mean (TTK): 91 % of control | residual activity at 1 µM, Mean (WNK3): 94 % of control | residual activity at 1 µM, Mean (ZAP70): 97 % of control
